Measured values from patent US9499519B2, “Fused pyrimidine compounds and use thereof” (Medivation Technologies, Inc., priority 2012, dated 2016).
Read-outs that look alike come from different tables or passages of the source.

Experiments:
NTRK2(TRKB) = NTRK2(TRKB) (Homo sapiens, UniProt Q16620); assay: Caliper kinase assay: NTRK2 (TRKB); settings: Trk B, 0.01 μM
Description: (§6) The compound was tested at concentrations of 1.0×10^−8 and 1.0×10^−9 M in the RapidKinase192™ panel in duplicate. […] The screening was performed using the Caliper EZReader2, a 4-sipper LabChip, and ProfilerPro Kinase Selectivity Assay Kits 1 and 2. The assay measures the conversion of a fluorescent peptide substrate to a phosphorylated product. Briefly, the reaction mixture was introduced through a capillary sipper onto the microfluidic chip, where the substrate and product were electrophoretically separated and detected by laser-induced fluorescence. The time-dependent fluorescence signal indicates the extent of the reaction.
(§7) The kinases tested were AurA, AurB, AurC, AXL, FAK2, IGF1R, InsR, Mer, MET, Trk B and Trk C.
(§8) The assays were conducted using the Caliper LabChip 3000 and a 12-sipper LabChip as described above.

AXL = target: T1, AXL (Homo sapiens, UniProt P30530); assay: Caliper kinase assay: AXL; settings: 0.01 μM
T1 sequence (P30530 26-894): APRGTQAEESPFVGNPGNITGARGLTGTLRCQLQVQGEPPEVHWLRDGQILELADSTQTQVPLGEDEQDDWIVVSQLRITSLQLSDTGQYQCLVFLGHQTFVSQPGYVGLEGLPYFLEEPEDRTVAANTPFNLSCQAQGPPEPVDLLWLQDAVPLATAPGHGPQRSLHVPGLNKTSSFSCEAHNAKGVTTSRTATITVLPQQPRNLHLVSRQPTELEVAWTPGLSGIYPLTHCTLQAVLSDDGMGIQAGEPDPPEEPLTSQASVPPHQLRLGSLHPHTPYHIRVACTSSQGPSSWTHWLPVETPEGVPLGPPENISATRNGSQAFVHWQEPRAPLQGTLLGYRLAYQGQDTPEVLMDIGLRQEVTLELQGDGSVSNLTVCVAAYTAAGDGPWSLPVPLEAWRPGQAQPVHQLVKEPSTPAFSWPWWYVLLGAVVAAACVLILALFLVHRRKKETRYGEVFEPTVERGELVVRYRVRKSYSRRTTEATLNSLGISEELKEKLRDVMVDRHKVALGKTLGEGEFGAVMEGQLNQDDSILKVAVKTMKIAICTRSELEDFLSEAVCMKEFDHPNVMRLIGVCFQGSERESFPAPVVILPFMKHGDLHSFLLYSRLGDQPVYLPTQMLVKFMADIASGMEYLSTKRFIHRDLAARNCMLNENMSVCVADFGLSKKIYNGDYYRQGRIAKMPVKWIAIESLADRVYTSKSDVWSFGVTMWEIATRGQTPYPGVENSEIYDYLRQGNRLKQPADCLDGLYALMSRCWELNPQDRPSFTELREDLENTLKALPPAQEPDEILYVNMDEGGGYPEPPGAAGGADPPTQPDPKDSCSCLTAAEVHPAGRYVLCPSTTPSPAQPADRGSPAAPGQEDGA
Description: as §6, §7, §8

TRKC(NTRK3) = TRKC(NTRK3) (Homo sapiens, UniProt Q16288); assay: Caliper kinase assay: TRKC (NTRK3); settings: Trk C, 0.01 μM
TRKC(NTRK3), sequence (Q16288 32-839): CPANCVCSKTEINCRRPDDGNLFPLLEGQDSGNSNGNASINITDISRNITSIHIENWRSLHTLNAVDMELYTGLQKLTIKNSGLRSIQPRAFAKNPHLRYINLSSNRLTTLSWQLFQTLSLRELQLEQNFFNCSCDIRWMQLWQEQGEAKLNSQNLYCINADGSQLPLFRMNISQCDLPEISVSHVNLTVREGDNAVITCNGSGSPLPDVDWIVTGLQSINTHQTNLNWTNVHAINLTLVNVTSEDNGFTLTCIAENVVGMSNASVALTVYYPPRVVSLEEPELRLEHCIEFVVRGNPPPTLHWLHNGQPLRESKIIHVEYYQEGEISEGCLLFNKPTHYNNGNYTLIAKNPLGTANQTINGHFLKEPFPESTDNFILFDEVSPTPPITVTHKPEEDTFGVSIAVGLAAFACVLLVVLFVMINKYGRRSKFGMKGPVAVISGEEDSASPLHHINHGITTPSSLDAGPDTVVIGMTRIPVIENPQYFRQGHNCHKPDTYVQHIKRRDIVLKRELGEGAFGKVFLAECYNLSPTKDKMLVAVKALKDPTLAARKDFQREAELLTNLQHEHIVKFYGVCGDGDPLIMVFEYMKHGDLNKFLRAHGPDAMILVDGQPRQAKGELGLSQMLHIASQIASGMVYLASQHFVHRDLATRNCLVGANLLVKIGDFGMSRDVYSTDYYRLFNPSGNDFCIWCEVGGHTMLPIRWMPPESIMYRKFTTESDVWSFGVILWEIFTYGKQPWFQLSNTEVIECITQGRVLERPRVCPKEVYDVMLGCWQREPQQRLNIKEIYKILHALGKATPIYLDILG
Description: as §6, §7, §8

IGF-1R = target: T2, IGF-1R (Homo sapiens, UniProt P08069); assay: In vitro IGF-1R enzymatic assay (ADP-Glo kinase assay); format: biochemical; settings: activated IGF-1R, 30 nM
T2 construct: purchased Millipore 14-802
T2 sequence (P08069 31-1367): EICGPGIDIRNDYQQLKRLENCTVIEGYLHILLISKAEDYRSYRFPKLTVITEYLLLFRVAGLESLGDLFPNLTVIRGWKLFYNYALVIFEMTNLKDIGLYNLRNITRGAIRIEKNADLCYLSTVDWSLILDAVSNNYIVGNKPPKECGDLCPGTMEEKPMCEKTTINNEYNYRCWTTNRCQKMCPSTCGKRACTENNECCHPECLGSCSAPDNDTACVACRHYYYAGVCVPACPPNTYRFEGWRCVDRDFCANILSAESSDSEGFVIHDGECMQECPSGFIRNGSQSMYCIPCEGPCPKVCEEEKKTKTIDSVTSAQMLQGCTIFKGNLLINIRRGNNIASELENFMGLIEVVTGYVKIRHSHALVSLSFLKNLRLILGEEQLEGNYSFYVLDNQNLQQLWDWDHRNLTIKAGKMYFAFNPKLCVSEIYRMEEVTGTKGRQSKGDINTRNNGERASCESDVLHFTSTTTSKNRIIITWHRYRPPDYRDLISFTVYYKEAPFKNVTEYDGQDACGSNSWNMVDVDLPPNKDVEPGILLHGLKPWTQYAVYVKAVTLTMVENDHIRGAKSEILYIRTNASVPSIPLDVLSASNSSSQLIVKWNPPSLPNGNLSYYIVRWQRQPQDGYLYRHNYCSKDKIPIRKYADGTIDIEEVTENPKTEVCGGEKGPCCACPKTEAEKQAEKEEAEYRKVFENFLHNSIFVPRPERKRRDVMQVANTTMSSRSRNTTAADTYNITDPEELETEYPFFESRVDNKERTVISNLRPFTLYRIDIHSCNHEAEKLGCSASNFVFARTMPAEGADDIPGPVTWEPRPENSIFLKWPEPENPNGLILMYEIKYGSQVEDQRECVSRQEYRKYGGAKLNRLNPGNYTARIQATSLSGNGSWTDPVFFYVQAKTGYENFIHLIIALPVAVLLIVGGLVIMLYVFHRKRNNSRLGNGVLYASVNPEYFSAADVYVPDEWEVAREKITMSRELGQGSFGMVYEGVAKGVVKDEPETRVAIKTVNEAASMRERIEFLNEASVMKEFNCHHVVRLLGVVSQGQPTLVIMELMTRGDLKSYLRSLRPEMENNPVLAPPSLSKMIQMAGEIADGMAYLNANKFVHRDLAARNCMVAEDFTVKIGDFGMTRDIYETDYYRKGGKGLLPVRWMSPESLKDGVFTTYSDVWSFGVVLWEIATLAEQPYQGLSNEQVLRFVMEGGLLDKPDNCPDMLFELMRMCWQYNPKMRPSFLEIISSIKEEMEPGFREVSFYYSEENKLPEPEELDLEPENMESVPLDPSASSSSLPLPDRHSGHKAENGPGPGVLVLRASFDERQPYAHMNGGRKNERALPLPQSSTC
Description: (§1) IC50 values of the compounds of the invention against IGF-1R and IR were measured in vitro using an ADP-Glo kinase assay Kit (Promega). […] Kinase reactions in both assays were conducted at 30° C. for 20 min with increasing concentrations of compounds of the invention.
Additional compounds of the invention were screened against activated IGF-1R.

[1] = test system: Akt phosphorylation induced by IGF-1R; assay: Western blot analysis of Akt phosphorylation induced by IGF-1 in HT-29 cells; format: cell-based, Human; settings: for Levels of phosphorylated AKT in treated cells (pAKT/actin): HT-29 cells, IGF-1; for p-AKT relative to levels with 0.1 nM compound: Table B2 lower part; for Normalized phosphorylated AKT (relative to actin) levels relative to 0.1 nM compound treatment: Table B2 upper part; for pAKT relative to 0.1 nM compound: derivatives of Cpd. No. 8b
Method in brief: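 Phospho-Akt assessed by western blot in serum-depleted (24 h) human colon carcinoma HT-29 cells. Compounds applied for 2 h at 0.1–100 (0.1, 1, 10, 100); vehicle DMSO and 10 ng/mL IGF-1 served as controls. Protein in cleared lysates measured by BCA assay.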

PYK2 = PYK2 (Homo sapiens, UniProt Q14289); assay: Caliper kinase assay: PYK2 (called FAK2); settings: FAK2, 0.01 μM
PYK2, sequence (Q14289 whole entry): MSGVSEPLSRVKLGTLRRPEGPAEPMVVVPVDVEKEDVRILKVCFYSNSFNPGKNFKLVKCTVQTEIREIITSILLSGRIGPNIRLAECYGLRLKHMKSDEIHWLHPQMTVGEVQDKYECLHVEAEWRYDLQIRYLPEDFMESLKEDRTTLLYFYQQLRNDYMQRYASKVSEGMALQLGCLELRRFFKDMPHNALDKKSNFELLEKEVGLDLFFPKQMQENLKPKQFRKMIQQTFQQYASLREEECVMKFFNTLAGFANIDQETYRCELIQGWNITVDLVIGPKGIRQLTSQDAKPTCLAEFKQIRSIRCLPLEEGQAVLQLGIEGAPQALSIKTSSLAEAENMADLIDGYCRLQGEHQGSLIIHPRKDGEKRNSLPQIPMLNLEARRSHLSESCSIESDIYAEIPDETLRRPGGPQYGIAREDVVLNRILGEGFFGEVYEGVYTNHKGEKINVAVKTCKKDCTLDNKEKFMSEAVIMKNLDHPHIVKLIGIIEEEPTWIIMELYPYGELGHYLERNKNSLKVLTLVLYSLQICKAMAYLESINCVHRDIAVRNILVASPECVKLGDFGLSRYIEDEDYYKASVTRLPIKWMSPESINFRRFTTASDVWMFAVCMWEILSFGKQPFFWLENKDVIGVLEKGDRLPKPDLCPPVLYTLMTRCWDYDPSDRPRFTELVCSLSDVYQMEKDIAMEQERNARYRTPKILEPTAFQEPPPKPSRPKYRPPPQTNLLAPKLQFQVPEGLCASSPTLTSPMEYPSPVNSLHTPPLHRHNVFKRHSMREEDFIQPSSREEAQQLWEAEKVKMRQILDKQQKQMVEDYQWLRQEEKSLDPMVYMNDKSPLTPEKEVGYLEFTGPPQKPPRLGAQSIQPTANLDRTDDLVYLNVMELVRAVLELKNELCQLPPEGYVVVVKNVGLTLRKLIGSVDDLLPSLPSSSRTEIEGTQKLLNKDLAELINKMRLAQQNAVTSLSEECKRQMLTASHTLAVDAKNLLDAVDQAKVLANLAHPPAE
Description: as §6, §7, §8

IR = target: T3, IR (Homo sapiens, UniProt P06213); assay: In vitro IR enzymatic assay (ADP-Glo kinase assay); format: biochemical; settings: activated IR, 30 nM
T3 construct: purchased Millipore 14-803
T3 sequence (P06213 28-1382): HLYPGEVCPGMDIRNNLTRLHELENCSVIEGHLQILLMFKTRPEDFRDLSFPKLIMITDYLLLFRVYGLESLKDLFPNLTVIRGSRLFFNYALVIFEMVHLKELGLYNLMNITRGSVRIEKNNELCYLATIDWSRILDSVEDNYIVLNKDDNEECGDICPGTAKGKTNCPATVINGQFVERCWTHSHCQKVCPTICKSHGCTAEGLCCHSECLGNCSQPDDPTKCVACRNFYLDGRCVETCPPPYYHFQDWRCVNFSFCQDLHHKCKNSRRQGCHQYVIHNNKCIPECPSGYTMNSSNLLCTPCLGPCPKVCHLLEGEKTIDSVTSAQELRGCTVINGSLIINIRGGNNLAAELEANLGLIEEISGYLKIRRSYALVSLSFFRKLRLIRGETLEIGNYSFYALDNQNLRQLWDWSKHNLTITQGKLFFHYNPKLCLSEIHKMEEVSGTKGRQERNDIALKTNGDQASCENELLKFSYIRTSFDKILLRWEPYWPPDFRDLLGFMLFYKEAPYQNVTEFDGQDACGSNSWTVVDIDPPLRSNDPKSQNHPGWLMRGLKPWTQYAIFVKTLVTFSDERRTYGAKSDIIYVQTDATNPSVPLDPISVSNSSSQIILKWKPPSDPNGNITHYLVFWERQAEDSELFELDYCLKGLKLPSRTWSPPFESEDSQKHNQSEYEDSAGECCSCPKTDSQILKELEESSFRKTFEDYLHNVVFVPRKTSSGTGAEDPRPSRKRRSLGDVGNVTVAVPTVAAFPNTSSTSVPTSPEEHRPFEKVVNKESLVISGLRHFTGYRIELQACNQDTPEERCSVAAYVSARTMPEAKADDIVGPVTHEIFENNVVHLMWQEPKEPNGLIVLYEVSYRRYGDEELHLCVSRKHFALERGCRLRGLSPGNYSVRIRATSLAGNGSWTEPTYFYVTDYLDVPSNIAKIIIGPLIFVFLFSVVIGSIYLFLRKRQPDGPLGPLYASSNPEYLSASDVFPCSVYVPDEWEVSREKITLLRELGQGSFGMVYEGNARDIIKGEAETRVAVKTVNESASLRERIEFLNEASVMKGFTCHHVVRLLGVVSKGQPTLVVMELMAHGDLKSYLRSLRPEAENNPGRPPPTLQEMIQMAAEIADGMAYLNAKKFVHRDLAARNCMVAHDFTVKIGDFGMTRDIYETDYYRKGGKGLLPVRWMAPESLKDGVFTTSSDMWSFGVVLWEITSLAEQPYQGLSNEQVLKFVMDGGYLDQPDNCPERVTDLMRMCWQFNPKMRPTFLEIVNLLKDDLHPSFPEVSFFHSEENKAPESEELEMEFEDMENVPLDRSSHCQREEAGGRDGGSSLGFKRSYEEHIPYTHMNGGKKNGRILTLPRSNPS
Description: as §1
Additional compounds of the invention were screened against activated IR.

MDA MB175 = assay: Cell Titer-Glo cell viability: MDA MB175; format: cell-based; settings: MDA-MB-175, any concentration tested, 3 μM maximum
Description: (§2) Compound nos. […] This panel of cell lines includes an ER− breast carcinoma, primary breast ductal carcinoma, prostate adenocarcinoma, mammary adenocarcinoma, mammary ductal carcinoma, mammary ductal carcinoma, ovary adenocarcinoma, ER+ breast carcinoma, ER− HER2+ mammary ductal carcinoma and an ER+ mammary ductal carcinoma, respectively.
(§3) This assay quantitates the ATP present in order to determine the number of viable cells in culture. Briefly, the compounds were incubated with the cells for 72 h, followed by cell lysis. The resulting luminescent signal is proportional to the amount of ATP present and, therefore, directly proportional to the number of cells present in culture.
(§4) Compounds 2b, 5, 6b and 10a were tested along with derivatives in viability assays as described above by Caliper LifeSciences Systems (Hanover, Md.), in A549, HCT-15, HCT-116, MCF-7, MDA-MB-231, OVCAR3, T47D, COLO205, HT-29, BT-20, HCC1187, HL-60, MDA-MB-175, SW-620, and UACC812 cells.
(§5) The inhibitory effects of Compound 8a were tested in two cell lines.

UACC 812 = assay: Cell Titer-Glo cell viability: UACC 812; format: cell-based; settings: UACC812, any concentration tested, 3 μM maximum
Description: as §2, §3, §4, §5

[2] = N1, read-out: % Inh @ 30 nM (N1)
[3] = N2, read-out: % Inh @ 30 nM (N2)
[4] = average, read-out: % Inh @ 30 nM Avg

Row | inhibition at 0.03 µM (IGF-1R; [4]) [%] | Compound | Levels of phosphorylated AKT in treated cells (pAKT/actin) ([1]; 0.1 nM compound) | p-AKT relative to levels with 0.1 nM compound ([1]; 0.1 nM) | Normalized phosphorylated AKT (relative to actin) levels relative to 0.1 nM compound treatment ([1]; 0.1 nM) | Levels of phosphorylated AKT in treated cells (pAKT/actin) ([1]; 1 nM compound) | p-AKT relative to levels with 0.1 nM compound ([1]; 1 nM) | Normalized phosphorylated AKT (relative to actin) levels relative to 0.1 nM compound treatment ([1]; 1 nM) | Levels of phosphorylated AKT in treated cells (pAKT/actin) ([1]; 10 nM compound) | p-AKT relative to levels with 0.1 nM compound ([1]; 10 nM) | Levels of phosphorylated AKT in treated cells (pAKT/actin) ([1]; 100 nM compound) | p-AKT relative to levels with 0.1 nM compound ([1]; 100 nM) | Normalized phosphorylated AKT (relative to actin) levels relative to 0.1 nM compound treatment ([1]; 100 nM) | also measured
1 | 94 | O=C(Nc1cnccn1)C1CCCN1c1nc2c(c(Nc3cc(C4CC4)[nH]n3)n1)CCC2 (single isomer, unassigned) [Compound 6b, 1-(4-(3-cyclopropyl-1H-pyrazol-5-ylamino)-6,7-dihydro-5H-cyclopenta[d]pyrimidin-2-yl)-N-(pyrazin-2-yl)pyrrolidine-2-carboxamide] | 0.87 | 1.0 | 1.0 | 0.18 | 0.2 | 0.2 | 0.00 | 0.0 | 0.00 | 0.0 | 0.0 | inhibition of kinase (NTRK2(TRKB)): strongly inhibited; inhibition of kinase (AXL): strongly inhibited; inhibition of kinase (TRKC(NTRK3)): strongly inhibited; inhibition at 0.03 µM (IGF-1R; [2]): 93%; inhibition at 0.03 µM (IGF-1R; [3]): 95%; pAKT relative to 0.1 nM compound ([1]; 0.1 nM): 1.00; pAKT relative to 0.1 nM compound ([1]; 1 nM): 0.39; pAKT relative to 0.1 nM compound ([1]; 10 nM): 0.02; pAKT relative to 0.1 nM compound ([1]; 100 nM): 0.01; inhibition of kinase (PYK2): strongly inhibited; inhibition at 0.03 µM (IR; [2]): 92%; inhibition at 0.03 µM (IR; [3]): 91%; inhibition at 0.03 µM (IR; [4]): 92%
2 | 0 | CC(C)c1cc(Nc2nc(N3CCC[C@H]3C(=O)Nc3ccc(F)nc3)nc3c2CCC3)n[nH]1 (single isomer, unassigned) [Compound 8a] | 1.93 | 1.0 | 1.0 | 2.27 | 1.2 | 1.2 | 1.17 | 0.6 | 1.78 | 0.9 | 0.9 | proliferation as compared to the untreated control (MDA MB175): ≥ 68%; proliferation as compared to the untreated control (UACC 812): ≥ 68%; Normalized phosphorylated AKT (relative to actin) levels relative to 0.1 nM compound treatment ([1]; 10 nM): 0.6
